In brackets after ≈: the same amount, converted by molar mass.
Legend:
Format in all cases: cell-based
mycoplasma = assay: Antimycoplasma activity, paper disc method; conditions: Eiken PPLO agar, pH 7.8, 37° C., 1 day
Description: Inhibitory zone is assayed by paper disc method (Eiken PPLO agar, pH 7.8,

Aspergillus niger = assay: Antifungal activity, agar dilution method; conditions: potato agar, pH 6.4, 27° C., 4 days
Description: (§1) Minimal inhibitory concentration is assayed by agar dilution method
(§2) (potato agar, pH 6.4, 27° C., 4 days)

Trichophyton violaceum = assay: Antifungal activity, agar dilution method; conditions: potato agar, pH 6.4, 27° C., 4 days
Description: as §1, §2

Trichophyton ferrugineum = assay: Antifungal activity, agar dilution method; conditions: potato agar, pH 6.4, 27° C., 4 days
Description: as §1, §2

Saccharomyces sake = assay: Antifungal activity, agar dilution method; conditions: potato agar, pH 6.4, 27° C., 4 days
Description: as §1, §2

Trichophyton rubrum = assay: Antifungal activity, agar dilution method; conditions: potato agar, pH 6.4, 27° C., 4 days
Description: as §1, §2

Candida albicans = assay: Antifungal activity, agar dilution method; conditions: potato agar, pH 6.4, 27° C., 4 days
Description: as §1, §2

Microsporum gypseum = assay: Antifungal activity, agar dilution method; conditions: potato agar, pH 6.4, 27° C., 4 days
Description: as §1, §2

Trichophyton schoenleini = assay: Antifungal activity, agar dilution method; conditions: potato agar, pH 6.4, 27° C., 4 days
Description: as §1, §2

Trichophyton asteroides = assay: Antifungal activity, agar dilution method; conditions: potato agar, pH 6.4, 27° C., 4 days
Description: as §1, §2

Aspergillus fumigatus = assay: Antifungal activity, agar dilution method; conditions: potato agar, pH 6.4, 27° C., 4 days
Description: as §1, §2

[1] = test system: Trichophyton interdigitale; assay: Antifungal activity, agar dilution method; conditions: potato agar, pH 6.4, 27° C., 4 days
Description: as §1, §2

[2] = Trichophyton, 96 h, read-out: Minimal Inhibitory Con.

CCC[C@H]1O[C@H](CC(=O)O)CC2=C1C(=O)c1c(O)cccc1C2=O [Deoxyfrenolicin, deoxyfrenolicin]
zone of inhibition at 10 µg/mL (mycoplasma; Mycoplasma, 24 h, 10 μg/ml, read-out: Inhibitory Zone): 14.6 mm
zone of inhibition at 100 µg/mL (mycoplasma; Mycoplasma, 24 h, 100 μg/ml, read-out: Inhibitory Zone): 21.8 mm
MIC (Aspergillus niger; Aspergillus niger, 96 h, read-out: Minimal Inhibitory Con.): > 100 µg/mL
MIC (Trichophyton violaceum; Trichophyton violaceum, 96 h, read-out: Minimal Inhibitory Con.): 0.8 µg/mL (≈ 2.42 µM)
MIC (Trichophyton ferrugineum; Microsporum ferrugineum, 96 h, read-out: Minimal Inhibitory Con.): 3.1 µg/mL (≈ 9.38 µM)
MIC (Saccharomyces sake; Saccharomyces, 96 h, read-out: Minimal Inhibitory Con.): 6.3 µg/mL (≈ 19.1 µM)
MIC (Trichophyton rubrum; Trichophyton rubrum, 96 h, read-out: Minimal Inhibitory Con.): < 0.2 µg/mL
MIC (Candida albicans; Candida albicans, 96 h, read-out: Minimal Inhibitory Con.): 50 µg/mL (≈ 151 µM)
MIC (Microsporum gypseum; Nannizzia gypsea, 96 h, read-out: Minimal Inhibitory Con.): < 0.2 µg/mL
MIC (Trichophyton schoenleini; [2]): < 0.2 µg/mL
MIC (Trichophyton asteroides; [2]): < 0.2 µg/mL
MIC (Aspergillus fumigatus; Aspergillus fumigatus, 96 h, read-out: Minimal Inhibitory Con.): 6.3 µg/mL (≈ 19.1 µM)
MIC ([1]; Trichophyton interdigitale, 96 h, read-out: Minimal Inhibitory Con.): 0.4 µg/mL (≈ 1.21 µM)

ethylkalafunginate
Inhibitory Zone (mycoplasma; 10 μg/ml): none
Inhibitory Zone (mycoplasma; 100 μg/ml): none
Minimal Inhibitory Con. (Aspergillus niger): > 100 µg/mL
Minimal Inhibitory Con. (Trichophyton violaceum): > 100 µg/mL
Minimal Inhibitory Con. (Trichophyton ferrugineum): > 100 µg/mL
Minimal Inhibitory Con. (Saccharomyces sake): > 100 µg/mL
Minimal Inhibitory Con. (Trichophyton rubrum): > 100 µg/mL
Minimal Inhibitory Con. (Candida albicans): > 100 µg/mL
Minimal Inhibitory Con. (Microsporum gypseum): > 100 µg/mL
Minimal Inhibitory Con. (Trichophyton schoenleini): > 100 µg/mL
Minimal Inhibitory Con. (Trichophyton asteroides): > 100 µg/mL
Minimal Inhibitory Con. (Aspergillus fumigatus): > 100 µg/mL
Minimal Inhibitory Con. [1]: > 100 µg/mL

— patent US4308210A, “Nanaomycin B and therapeutic compositions containing same” (The Kitasato Institute, priority 1976, dated 1981)
